System: rat model of pulmonary hypertension induced by monocrotaline
Test: Rat model of pulmonary hypertension induced by monocrotaline
Format: in vivo
Details: for reduction of TNF-α levels compared with the MCT model: 25 mg/kg; for RV/(LV + S): MCT model 0.45 ± 0.03; for TNF-α in lung tissue: MCT model 0.94 ± 0.07; for mPAP: MCT model 33.7 ± 4.3; for small pulmonary artery lesions compared with the model group (histopathology, H&E): treatment groups
Procedure: The preventive effect of the compounds of the present invention (as exemplified by compound 1-1 obtained in Example 1) on pulmonary hypertension was determined using a rat model of pulmonary hypertension induced by monocrotaline. The method was as follows:
Grouping of animals: 70 male SD rats with weigh of 200±20 g were randomly divided into 7 groups, i.e., a normal control group, a monocrotaline (MCT) model group, a treatment group of low-dose compound 1-1 (10 mg/kg) (MCT), a treatment group of medium-dose compound 1-1 (25 mg/kg) (MCT), a treatment group of high-dose compound 1-1 (50 mg/kg) (MCT), a treatment group of medium-dose indole analogue 3-[(1-methyl-1H-indole-2-carbonyl)amino]propionic acid (25 mg/kg) disclosed in CN2019107285315 (MCT), and a sildenafil group (150 mg/kg) (MCT), with 10 rats in each group.
Experimental procedure: MCT was prepared as a 2% solution with a mixture of ethanol and saline (2:8) and the solution was injected intraperitoneally once at a dose of 60 mg/kg body weight in all groups except the normal control group. Each rat in the normal control group was injected intraperitoneally once with a solution prepared from ethanol and saline in a volume ratio of 2:8. Compound 1-1 obtained in Example 1, the indole analogue 3-[(1-methyl-1H-indole-2-carbonyl)amino]propionic acid disclosed in CN2019107285315, or the positive drug sildenafil was administered by gavage to the mice in the treatment groups on the day of modelling, and saline was administered by gavage to the mice in the normal control group and the MCT model group. The drugs were administered by gavage once a day for 28 days until 12 hours before test.
Determination of hemodynamic indexes: a polyethylene plastic microcatheter filled with heparin solution (0.9% sodium chloride solution+10 U/mL heparin) was inserted into the right external jugular vein of a rat, and the other end of the microcatheter was connected to a miniature pressure transducer to monitor the pressure changes. […] After 30 minutes of stabilization, the POWERLAB multi-channel intelligent physiological signal acquisition and recording system was applied to acquire, record and analyze the indexes.
Determination of the index of right ventricular (RV) hypertrophy: at the end of the experiment, the heart was removed by dissection of the thorax and the atrial tissue was cut off. The right ventricle (RV), left ventricle (LV), and interventricular septum (S) were isolated along the edge of the interventricular septum, and the RV, LV, and S were weighed after absorbing water with filter paper and the ratio RV/(LV+S) was used to reflect the degree of RV hypertrophy.
Pathological examination of pulmonary vessels: tissue blocks were taken from the same site in the lower lobe of the right lung and fixed in 10% neutral formaldehyde (pH=7.4) for 2 days. Routine paraffin embedding, serial sections, H&E staining and light microscopy were performed to observe morphological changes in small pulmonary arteries.
Effect on inflammatory factors in lung tissue: Lung tissues were collected from each group of rats, homogenates of lung tissue were prepared and centrifuged and supernatants were collected. The protein level in the supernatant was determined by Coomassie brilliant blue method, and tumor necrosis factor-α (TNF-α) in rats was determined by an ELISA kit (Beijing 4A Biotech Co., Ltd.). […]

[1] = MCT + 25 mg/kg gavage once a day 28 days

| Structure (SMILES) | reduction of TNF-α levels compared with the MCT model | RV/(LV + S) (MCT + 25 mg/kg gavage 28 days) | TNF-α in lung tissue (MCT + 25 mg/kg gavage 28 days) | mPAP [1] | small pulmonary artery lesions compared with the model group (histopathology, H&E) | RV/(LV + S) (MCT + 10 mg/kg gavage 28 days) | TNF-α in lung tissue (MCT + 10 mg/kg gavage 28 days) | mPAP (MCT + 10 mg/kg gavage once a day 28 days) | RV/(LV + S) (MCT + 50 mg/kg gavage 28 days) | TNF-α in lung tissue (MCT + 50 mg/kg gavage 28 days) | mPAP (MCT + 50 mg/kg gavage once a day 28 days) |
| --- | --- | --- | --- | --- | --- | --- | --- | --- | --- | --- | --- |
| Cn1c(C(=O)NCCC(=O)O)cc2ccccc21 [3-[(1-methyl-1H-indole-2-carbonyl)amino]propionic acid, reference compound] | 37.2% | 0.38 ± 0.04 | 0.59 ± 0.07 g/g protein | 28.9 ± 3.4 mmHg | significantly reduced |  |  |  |  |  |  |
| CC(=O)OCCCNC(=O)c1c(C=O)c2ccccc2n1C [compound 1-1, propyl 3-[(3-formyl-1-methyl-1H-indole-2-carbonyl)amino]acetate] | 58.5% | 0.31 ± 0.04 | 0.39 ± 0.05 g/g protein | 25.8 ± 2.5 mmHg | significantly reduced | 0.37 ± 0.04 | 0.65 ± 0.08 g/g protein | 26.0 ± 2.8 mmHg | 0.28 ± 0.03 | 0.34 ± 0.05 g/g protein | 20.3 ± 3.0 mmHg |

— patent publication US12692232B2, “Indole carboxamide compound, preparation therefor and use thereof” (NANJING RUISHUNING MEDICAL TECHNOLOGY CO., LTD., priority 2021, dated 2026)
